Structures can show the parent of a compound that is named as a salt. Where two headings read alike, the source gives them in different places.
Key:
Design in all cases: species or system AML cell lines (8); Primary HTS, single concentration about 10 uM, Cell Titer Glo viability; log10 luminescence, per cent inhibition relative to cycloheximide control
Settings in all cases: 72 h, relative to cycloheximide control, log10 luminescence, inhibitor
CHRF288-11 = tested on: CHRF288-11
CMK = tested on: CMK
CMS = tested on: CMS
M07e = tested on: M07e
ML-2 = tested on: ML-2
MOLM-13 = tested on: MOLM-13
MV4-11 = tested on: MV4-11
U937 = tested on: U937

Compound: OC[C@H]1O[C@@H](O[C@@H]2[C@@H](CO)OC(O)(CO)[C@H]2O)[C@H](O)[C@@H](O)[C@H]1O (mixture of isomers) [SJ000285579-3, LACTULOSE]
- CHRF288-11 %inh (CHRF288-11; CHRF288-11 %inh, 10 µM): 0.1599%
- CMK %inh (CMK; CMK %inh, 10 µM): -4.096%
- CMS %inh (CMS; CMS %inh, 10 µM): -1.064%
- M07e %inh (M07e; M07e %inh, 10 µM): 2.568%
- ML-2 %inh (ML-2; ML-2 %inh, 10 µM): -0.1648%
- MOLM-13 %inh (MOLM-13; MOLM-13 %inh, 10 µM): 2.867%
- MV4-11 %inh (MV4-11; MV4-11 %inh, 10 µM): 0.8098%
- U937 %inh (U937; U937 %inh, 10 µM): -0.7505%

Compound: OC[C@H]1O[C@@H](O[C@@H]2[C@@H](CO)OC(O)(CO)[C@H]2O)[C@H](O)[C@@H](O)[C@H]1O (mixture of isomers) [SJ000285579-4, LACTULOSE]
- CHRF288-11 %inh (CHRF288-11; CHRF288-11 %inh, 10 µM): 2.769%
- CMK %inh (CMK; CMK %inh, 10 µM): 0.6173%
- CMS %inh (CMS; CMS %inh, 10 µM): -0.8505%
- M07e %inh (M07e; M07e %inh, 10 µM): 8.809%
- ML-2 %inh (ML-2; ML-2 %inh, 10 µM): -0.9858%
- MOLM-13 %inh (MOLM-13; MOLM-13 %inh, 10 µM): 5.87%
- MV4-11 %inh (MV4-11; MV4-11 %inh, 10 µM): 2.037%
- U937 %inh (U937; U937 %inh, 10 µM): 1.171%

Compound: NC[C@H](CC(=O)O)c1ccc(Cl)cc1 (racemic) [SJ000285686-7, BACLOFEN | (R,S)-BACLOFEN | (±)-BACLOFEN | LIORESAL]
- CHRF288-11 %inh (CHRF288-11): -1.195%
- CMK %inh (CMK): 21.33%
- CMS %inh (CMS): 7.511%
- M07e %inh (M07e): -0.3712%
- ML-2 %inh (ML-2): 2.059%
- MOLM-13 %inh (MOLM-13): 8.873%
- MV4-11 %inh (MV4-11): 2.346%
- U937 %inh (U937): 5.766%

Compound: CCOC(=O)C1=C(C)NC(C)=C(C(=O)OC)C1c1cccc(Cl)c1Cl (single isomer, unassigned) [SJ000287293-6, FELODIPINE]
- CHRF288-11 %inh (CHRF288-11; CHRF288-11 %inh, 10 µM): 40.78%
- CMK %inh (CMK; CMK %inh, 10 µM): 32.28%
- CMS %inh (CMS; CMS %inh, 10 µM): 3.783%
- M07e %inh (M07e; M07e %inh, 10 µM): 5.04%
- ML-2 %inh (ML-2; ML-2 %inh, 10 µM): 0.03711%
- MOLM-13 %inh (MOLM-13; MOLM-13 %inh, 10 µM): 23.61%
- MV4-11 %inh (MV4-11; MV4-11 %inh, 10 µM): 5.092%
- U937 %inh (U937; U937 %inh, 10 µM): 12.66%

Compound: CCOC(=O)C1=C(C)NC(C)=C(C(=O)OC)C1c1cccc(Cl)c1Cl (single isomer, unassigned) [SJ000287293-7, FELODIPINE]
- CHRF288-11 %inh (CHRF288-11; CHRF288-11 %inh, 10 µM): 33.72%
- CMK %inh (CMK; CMK %inh, 10 µM): 36.03%
- CMS %inh (CMS; CMS %inh, 10 µM): -2.469%
- M07e %inh (M07e; M07e %inh, 10 µM): 7.937%
- ML-2 %inh (ML-2; ML-2 %inh, 10 µM): 2.538%
- MOLM-13 %inh (MOLM-13; MOLM-13 %inh, 10 µM): 16.76%
- MV4-11 %inh (MV4-11; MV4-11 %inh, 10 µM): 12.83%
- U937 %inh (U937; U937 %inh, 10 µM): 12.4%

Compound: C[C@]12CC[C@@H]3c4ccc(O)cc4C[C@@H](CCCCCCCCC[S+]([O-])CCCC(F)(F)C(F)(F)F)[C@H]3[C@@H]1CC[C@@H]2O (single isomer, unassigned) [SJ000288293-3, FULVESTRANT | FULVESTRANT| FASLODEX | FASLODEX (ICI 182,780)]
- CHRF288-11 %inh (CHRF288-11; CHRF288-11 %inh, 10 µM): 4.612%
- CMK %inh (CMK; CMK %inh, 10 µM): -2.659%
- CMS %inh (CMS; CMS %inh, 10 µM): 2.454%
- M07e %inh (M07e; M07e %inh, 10 µM): 3.741%
- ML-2 %inh (ML-2; ML-2 %inh, 10 µM): 2.01%
- MOLM-13 %inh (MOLM-13; MOLM-13 %inh, 10 µM): -2.461%
- MV4-11 %inh (MV4-11; MV4-11 %inh, 10 µM): 13.25%
- U937 %inh (U937; U937 %inh, 10 µM): -0.5617%

Compound: C[C@]12CC[C@@H]3c4ccc(O)cc4C[C@@H](CCCCCCCCC[S+]([O-])CCCC(F)(F)C(F)(F)F)[C@H]3[C@@H]1CC[C@@H]2O (single isomer, unassigned) [SJ000288293-4, FULVESTRANT | FULVESTRANT| FASLODEX | FASLODEX (ICI 182,780)]
- CHRF288-11 %inh (CHRF288-11; CHRF288-11 %inh, 10 µM): -3.752%
- CMK %inh (CMK; CMK %inh, 10 µM): -2.475%
- CMS %inh (CMS; CMS %inh, 10 µM): 2.909%
- M07e %inh (M07e; M07e %inh, 10 µM): 2.696%
- ML-2 %inh (ML-2; ML-2 %inh, 10 µM): 1.626%
- MOLM-13 %inh (MOLM-13; MOLM-13 %inh, 10 µM): -1.784%
- MV4-11 %inh (MV4-11; MV4-11 %inh, 10 µM): 6.552%
- U937 %inh (U937; U937 %inh, 10 µM): -1.083%

Compound: O=[N+]([O-])c1ccc(Oc2ccc(Br)cc2)c(C(O)P(=O)(O)O)c1 (single isomer, unassigned) [SJ000312207-2, RWJ-60475]
- CHRF288-11 %inh (CHRF288-11; CHRF288-11 %inh, 10 µM): 1.479%
- CMK %inh (CMK; CMK %inh, 10 µM): 0.9236%
- CMS %inh (CMS; CMS %inh, 10 µM): 0.5647%
- M07e %inh (M07e; M07e %inh, 10 µM): -2.334%
- ML-2 %inh (ML-2; ML-2 %inh, 10 µM): 0.244%
- MOLM-13 %inh (MOLM-13; MOLM-13 %inh, 10 µM): 9.917%
- MV4-11 %inh (MV4-11; MV4-11 %inh, 10 µM): 4.34%
- U937 %inh (U937; U937 %inh, 10 µM): 1.53%

Compound: O=[N+]([O-])c1ccc(Oc2ccc(Br)cc2)c(C(O)P(=O)(O)O)c1 (single isomer, unassigned) [SJ000312207-3, RWJ-60475]
- CHRF288-11 %inh (CHRF288-11; CHRF288-11 %inh, 10 µM): -1.978%
- CMK %inh (CMK; CMK %inh, 10 µM): 2.859%
- CMS %inh (CMS; CMS %inh, 10 µM): -0.822%
- M07e %inh (M07e; M07e %inh, 10 µM): 1.458%
- ML-2 %inh (ML-2; ML-2 %inh, 10 µM): 4.625%
- MOLM-13 %inh (MOLM-13; MOLM-13 %inh, 10 µM): 10.73%
- MV4-11 %inh (MV4-11; MV4-11 %inh, 10 µM): 2.215%
- U937 %inh (U937; U937 %inh, 10 µM): 3.171%

Compound: Clc1ccc(C(Cn2ccnc2)OCc2ccsc2Cl)c(Cl)c1 (single isomer, unassigned) [SJ000556739-1, TIOCONAZOLE]
- CHRF288-11 %inh (CHRF288-11; CHRF288-11 %inh, 10 µM): 35.73%
- CMK %inh (CMK; CMK %inh, 10 µM): 41.48%
- CMS %inh (CMS; CMS %inh, 10 µM): 7.938%
- M07e %inh (M07e; M07e %inh, 10 µM): 14.34%
- ML-2 %inh (ML-2; ML-2 %inh, 10 µM): 9.708%
- MOLM-13 %inh (MOLM-13; MOLM-13 %inh, 10 µM): 23.12%
- MV4-11 %inh (MV4-11; MV4-11 %inh, 10 µM): 16.99%
- U937 %inh (U937; U937 %inh, 10 µM): 20.14%

Compound: Clc1ccc(C(Cn2ccnc2)OCc2ccsc2Cl)c(Cl)c1 (single isomer, unassigned) [SJ000556739-2, TIOCONAZOLE]
- CHRF288-11 %inh (CHRF288-11; CHRF288-11 %inh, 10 µM): 62.31%
- CMK %inh (CMK; CMK %inh, 10 µM): 43.08%
- CMS %inh (CMS; CMS %inh, 10 µM): 5.318%
- M07e %inh (M07e; M07e %inh, 10 µM): 7.997%
- ML-2 %inh (ML-2; ML-2 %inh, 10 µM): 3.315%
- MOLM-13 %inh (MOLM-13; MOLM-13 %inh, 10 µM): 22.63%
- MV4-11 %inh (MV4-11; MV4-11 %inh, 10 µM): 16.77%
- U937 %inh (U937; U937 %inh, 10 µM): 5.367%

Compound: Cc1cc(NS(=O)(=O)c2ccc(N)cc2)no1 [SJ000285603-4, SULFAMETHOXAZOLE]
- CHRF288-11 %inh (CHRF288-11): 6.539%
- CMK %inh (CMK): -0.9998%
- CMS %inh (CMS): -0.6486%
- M07e %inh (M07e): 0.538%
- MOLM-13 %inh (MOLM-13): -2.87%
- MV4-11 %inh (MV4-11): 0.1304%
- U937 %inh (U937): -2.098%

Compound: CC(=O)N(O)CCCCCNC(=O)CCC(=O)N(O)CCCCCNC(=O)CCC(=O)N(O)CCCCCN [SJ000285725-4, DEFEROXAMINE MESYLATE]
- CHRF288-11 %inh (CHRF288-11; CHRF288-11 %inh, 10 µM): 11.08%
- CMK %inh (CMK): 16.85%
- CMS %inh (CMS; CMS %inh, 10 µM): 42.04%
- M07e %inh (M07e; M07e %inh, 10 µM): 6.608%
- ML-2 %inh (ML-2; ML-2 %inh, 10 µM): 7.19%
- MOLM-13 %inh (MOLM-13; MOLM-13 %inh, 10 µM): 17.22%
- MV4-11 %inh (MV4-11; MV4-11 %inh, 10 µM): 2.029%

Compound: C[C@H]1O[C@@H](O[C@H]2[C@@H](O)C[C@H](O[C@H]3[C@@H](O)C[C@H](O[C@H]4CC[C@@]5(C)[C@H](CC[C@@H]6[C@@H]5C[C@@H](O)[C@]5(C)[C@@H](C7=CC(=O)OC7)CC[C@]65O)C4)O[C@@H]3C)O[C@@H]2C)C[C@H](O)[C@@H]1O [SJ000285739-7, DIGOXIN]
- CHRF288-11 %inh (CHRF288-11; CHRF288-11 %inh, 10 µM): 112.6%
- CMS %inh (CMS; CMS %inh, 10 µM): 94.04%
- ML-2 %inh (ML-2; ML-2 %inh, 10 µM): 58.17%
- MOLM-13 %inh (MOLM-13; MOLM-13 %inh, 10 µM): 85.14%
- MV4-11 %inh (MV4-11; MV4-11 %inh, 10 µM): 73.33%
- U937 %inh (U937; U937 %inh, 10 µM): -15.97%

Compound: Cc1cnc(C(=O)NCCc2ccc(S(=O)(=O)NC(=O)NC3CCCCC3)cc2)cn1 [SJ000287188-5, GLIPIZIDE]
- CHRF288-11 %inh (CHRF288-11): -3.512%
- CMK %inh (CMK): 3.258%
- CMS %inh (CMS): 1.05%
- M07e %inh (M07e): 3.86%
- MOLM-13 %inh (MOLM-13): 17.27%
- MV4-11 %inh (MV4-11): -0.3606%
- U937 %inh (U937): 0.1954%

Compound: C[N+]1(C)CCC(OC(=O)C(O)(c2ccccc2)C2CCCC2)C1 (stereo not drawn) [SJ000287387-2, GLYCOPYRROLATE]
- CHRF288-11 %inh (CHRF288-11): 7.948%
- CMK %inh (CMK): -4.149%
- CMS %inh (CMS): -3.738%
- M07e %inh (M07e): 3.68%
- MOLM-13 %inh (MOLM-13): 6.707%
- MV4-11 %inh (MV4-11): 0.8412%
- U937 %inh (U937): 2.372%

Compound: CN(CCOc1ccc(NS(C)(=O)=O)cc1)CCc1ccc(NS(C)(=O)=O)cc1 [SJ000555707-1, DOFETILIDE]
- CHRF288-11 %inh (CHRF288-11): -0.9409%
- CMK %inh (CMK): 10.12%
- M07e %inh (M07e): 3.914%
- ML-2 %inh (ML-2): 3.818%
- MOLM-13 %inh (MOLM-13): 10.35%
- MV4-11 %inh (MV4-11): 4.51%
- U937 %inh (U937): 5.896%

Reference: publication PMC6522510 (Nature Communications, 2019)
